Test results taken from patent US5585491A, “Antibacterial agents” (Otsuka Pharmaceutical Co., Ltd., priority 1995, dated 1996).
≈ marks a conversion by molar mass, not a printed value. Read-outs that look alike come from different tables or passages of the source.

Legend:
Experiment in all cases: In vitro antibacterial activity, microtitration dilution method (MIC)
Format in all cases: cell-based
[1] = test system: Enterobacter cloacae MA 2646
Text: (§1) The compounds of the invention display antibacterial activity when tested by the microtitration dilution method as described in Heifetz, et al, Antimicr. Agents & Chemoth., 6, 124 (1974), which is incorporated herein by reference. By use of this method, the followed minimum inhibitory concentration values (MICs in μg/mL) were obtained for representative compounds of the invention.

Escherichia coli Vogel = conditions: Escherichia coli Vogel, microtitration dilution; read-out: Minimal Inhibitory Concentration MIC
Text: as §1

[2] = test system: Providencia rettgeri M 1771; conditions: M1771; Providencia rettgeri M 1771, microtitration dilution; read-out: Minimal Inhibitory Concentration MIC
Text: as §1

[3] = test system: Staphylococcus aureus H 228; conditions: H228; Staphylococcus aureus H 228, microtitration dilution; read-out: Minimal Inhibitory Concentration MIC
Text: as §1

[4] = test system: Streptococcus pyogenes C-203; conditions: C203; Streptococcus pyogenes C-203, microtitration dilution; read-out: Minimal Inhibitory Concentration MIC
Text: as §1

[5] = test system: Klebsiella pneumoniae MGH-2
Text: (§2) Agents & Chemoth., 6, 124 (1974), which is incorporated herein by reference.

[6] = test system: Pseudomonas aeruginosa UI-18
Text: as §2

[7] = test system: Staphylococcus aureus UC-76; conditions: UC76; Staphylococcus aureus UC-76, microtitration dilution; read-out: Minimal Inhibitory Concentration MIC
Text: as §2

[8] = test system: Streptococcus faecalis MGH-2; conditions: Enterococcus faecalis, MGH2; Streptococcus faecalis MGH-2, microtitration dilution; read-out: Minimal Inhibitory Concentration MIC
Text: as §2

[9] = test system: Streptococcus pneumoniae SV-1; conditions: SV1; Streptococcus pneumoniae SV-1, microtitration dilution; read-out: Minimal Inhibitory Concentration MIC
Text: as §2

Proteus rettgeri M 1771 = conditions: Providencia rettgeri
Text: as §2

[10] = MA2646, Enterobacter cloacae MA 2646, microtitration dilution, read-out: Minimal Inhibitory Concentration MIC
[11] = MGH2, Klebsiella pneumoniae MGH-2, microtitration dilution, read-out: Minimal Inhibitory Concentration MIC
[12] = UI18, Pseudomonas aeruginosa UI-18, microtitration dilution, read-out: Minimal Inhibitory Concentration MIC
[13] = Enterobacter cloacae, MA2646, read-out: Minimal Inhibitory Concentration MIC
[14] = Klebsiella pneumoniae, MGH2, read-out: Minimal Inhibitory Concentration MIC
[15] = Pseudomonas aeruginosa, UI18, read-out: Minimal Inhibitory Concentration MIC
[16] = M1771, Proteus rettgeri M 1771, microtitration dilution, read-out: Minimal Inhibitory Concentration MIC

Row | SMILES | MIC [1, 10] [µg/mL] | MIC (Escherichia coli Vogel) [µg/mL] | MIC [2] [µg/mL] | MIC [3] [µg/mL] | MIC [4] [µg/mL] | MIC [5, 11] [µg/mL] | MIC [6, 12] [µg/mL] | MIC [7] [µg/mL] | MIC [8] [µg/mL] | MIC [9] [µg/mL] | MIC [1, 13] [µg/mL] | MIC [5, 14] [µg/mL] | MIC [6, 15] [µg/mL] | MIC (Proteus rettgeri M 1771; [16]) [µg/mL] | MIC (Proteus rettgeri M 1771; M1771, read-out: Minimal Inhibitory Concentration MIC) [µg/mL]
1 | Cc1c(F)c(N2CCNCC2)c(F)c2c1c(=O)c(C(=O)O)cn2C1CC1 [Ex. 1, 1-Cyclopropyl-6,8-difluoro-1,4-dihydro-5-methyl-4-oxo-7-(1-piperazinyl)-3-quinolinecarboxylic acid] | 0.025 (≈ 0.0688 µM) | 0.025 (≈ 0.0688 µM) | 0.05 (≈ 0.138 µM) | 0.025 (≈ 0.0688 µM) | 0.05 (≈ 0.138 µM) | 0.025 (≈ 0.0688 µM) | 0.2 (≈ 0.55 µM) | 0.025 (≈ 0.0688 µM) | 0.05 (≈ 0.138 µM) | 0.025 (≈ 0.0688 µM) | – | – | – | – | –
2 | Cc1c(F)c(N2CCC(N)C2)c(F)c2c1c(=O)c(C(=O)O)cn2C1CC1 (stereo not drawn) [Ex. 2, 7-(3-Amino-1-pyrrolidinyl)-1-cyclopropyl-6,8-difluoro-1,4-dihydro-5-methyl-4-oxo-3-quinolinecarboxylic acid] | 0.006 (≈ 0.0165 µM) | 0.006 (≈ 0.0165 µM) | 0.025 (≈ 0.0688 µM) | 0.013 (≈ 0.0358 µM) | 0.013 (≈ 0.0358 µM) | 0.013 (≈ 0.0358 µM) | 0.4 (≈ 1.1 µM) | 0.003 (≈ 0.00826 µM) | 0.025 (≈ 0.0688 µM) | 0.003 (≈ 0.00826 µM) | – | – | – | – | –
3 | CCNCC1CCN(c2c(F)c(C)c3c(=O)c(C(=O)O)cn(C4CC4)c3c2F)C1 (stereo not drawn) [Ex. 3, 1-Cyclopropyl-7-[3-[(ethylamino)methyl]-1-pyrrolidinyl]-6,8-difluoro-1,4-dihydro-5-methyl-4-oxo-3-quinolinecarboxylic acid] | 0.1 (≈ 0.247 µM) | 0.05 (≈ 0.123 µM) | 0.2 (≈ 0.493 µM) | 0.013 (≈ 0.0321 µM) | 0.006 (≈ 0.0148 µM) | 0.1 (≈ 0.247 µM) | 0.8 (≈ 1.97 µM) | 0.003 (≈ 0.0074 µM) | 0.025 (≈ 0.0617 µM) | 0.003 (≈ 0.0074 µM) | – | – | – | – | –
4 | Cc1c(F)c(N2CCC(C)(CN)C2)c(F)c2c1c(=O)c(C(=O)O)cn2C1CC1 (stereo not drawn) [Ex. 4, 7-[3-(Aminomethyl)-3-methyl-1-pyrrolidinyl]-1-cyclopropyl-6,8-difluoro-1,4-dihydro-5-methyl-4-oxo-3-quinolinecarboxylic acid] | – | 0.05 (≈ 0.128 µM) | 0.2 (≈ 0.511 µM) | 0.006 (≈ 0.0153 µM) | 0.003 (≈ 0.00766 µM) | – | 0.8 (≈ 2.04 µM) | 0.003 (≈ 0.00766 µM) | 0.025 (≈ 0.0639 µM) | 0.003 (≈ 0.00766 µM) | 0.05 (≈ 0.128 µM) | 0.1 (≈ 0.255 µM) | – | – | –
5 | Cc1c(F)c(N2CCNC(C)C2)c(F)c2c1c(=O)c(C(=O)O)cn2C1CC1 (stereo not drawn) [Ex. 5, 1-Cyclopropyl-6,8-difluoro-1,4-dihydro-5-methyl-7-[3-methyl-1-piperazinyl]-4-oxo-3-quinolinecarboxylic acid] | 0.025 (≈ 0.0662 µM) | 0.05 (≈ 0.132 µM) | 0.1 (≈ 0.265 µM) | 0.025 (≈ 0.0662 µM) | 0.006 (≈ 0.0159 µM) | 0.05 (≈ 0.132 µM) | – | 0.013 (≈ 0.0344 µM) | 0.1 (≈ 0.265 µM) | 0.025 (≈ 0.0662 µM) | – | – | 0.4 (≈ 1.06 µM) | – | –
6 | Cc1c(F)c(N2CCNCC2)cc2c1c(=O)c(C(=O)O)cn2C1CC1 [Ex. 6, 1-Cyclopropyl-6-fluoro-1,4-dihydro-5-methyl-4-oxo-7-(1-piperazinyl)-3-quinolinecarboxylic acid] | 0.013 (≈ 0.0376 µM) | 0.013 (≈ 0.0376 µM) | 0.1 (≈ 0.29 µM) | 0.1 (≈ 0.29 µM) | 0.1 (≈ 0.29 µM) | 0.05 (≈ 0.145 µM) | 0.2 (≈ 0.579 µM) | 0.025 (≈ 0.0724 µM) | 0.05 (≈ 0.145 µM) | 0.05 (≈ 0.145 µM) | – | – | – | – | –
7 | Cc1c(F)c(N2CCNCC2)nc2c1c(=O)c(C(=O)O)cn2C1CC1 [Ex. 19, 1-Cyclopropyl-6-fluoro-1,4-dihydro-5-methyl-4-oxo-7-(1-piperazinyl)-1,8-naphthyridine-3-carboxylic acid] | 0.025 (≈ 0.0722 µM) | 0.013 (≈ 0.0375 µM) | – | 0.2 (≈ 0.577 µM) | 0.4 (≈ 1.15 µM) | 0.05 (≈ 0.144 µM) | – | 0.1 (≈ 0.289 µM) | 0.2 (≈ 0.577 µM) | 0.1 (≈ 0.289 µM) | – | – | 0.4 (≈ 1.15 µM) | 0.2 (≈ 0.577 µM) | –
8 | Cc1c(F)c(N2CCC(N)C2)nc2c1c(=O)c(C(=O)O)cn2-c1ccc(F)cc1F (stereo not drawn) [Ex. 22, 7-(3-Amino-1-pyrrolidinyl)-1-(2,4-difluorophenyl)-6-fluoro-1,4-dihydro-5-methyl-4-oxo-1,8-naphthyridine-3-carboxylic acid] | – | 0.05 (≈ 0.12 µM) | – | 0.05 (≈ 0.12 µM) | 0.05 (≈ 0.12 µM) | 0.05 (≈ 0.12 µM) | 0.2 (≈ 0.478 µM) | 0.013 (≈ 0.0311 µM) | 0.1 (≈ 0.239 µM) | 0.05 (≈ 0.12 µM) | 0.05 (≈ 0.12 µM) | – | – | – | 0.1 (≈ 0.239 µM)
9 | Cc1c(F)c(N2CC[C@@H]([C@H](C)N)C2)nc2c1c(=O)c(C(=O)O)cn2-c1ccc(F)cc1F [Ex. 23, 3R, 1'S-7-[3-(1-Aminoethyl)-1-pyrrolidinyl]-1-(2,4-difluorophenyl)-6-fluoro-1,4-dihydro-5-methyl-4-oxo-1,8-naphthyridine carboxylic acid] | 0.2 (≈ 0.448 µM) | 0.1 (≈ 0.224 µM) | – | 0.006 (≈ 0.0134 µM) | 0.003 (≈ 0.00672 µM) | – | 0.2 (≈ 0.448 µM) | 0.003 (≈ 0.00672 µM) | 0.013 (≈ 0.0291 µM) | 0.003 (≈ 0.00672 µM) | – | 0.1 (≈ 0.224 µM) | – | 0.2 (≈ 0.448 µM) | –
